Laboratory results: ChEMBL document CHEMBL4742387, “Condensed tricyclic compounds as protein kinase inhibitors” (2018)
pEC50, pIC50: −log10 of the molar value.

Columns and labels:
[1] = target: CDK8/Cyclin C (Homo sapiens, UniProt P49336); test: Inhibition of kinase tracer 236 binding to full-length His-tagged recombinant human CDK8/cyclin C incubated for 60 mins by FRET based LanthaScreen Eu-Kinase binding assay; type: protein-complex assay
[2] = target: T1, Serine/threonine-protein kinase haspin (Homo sapiens, UniProt Q8TF76); test: Inhibition of GST-tagged recombinant human haspin kinase domain incubated for 60 mins by ADP-Glo luminescent kinase assay
T1 sequence (Q8TF76 whole entry): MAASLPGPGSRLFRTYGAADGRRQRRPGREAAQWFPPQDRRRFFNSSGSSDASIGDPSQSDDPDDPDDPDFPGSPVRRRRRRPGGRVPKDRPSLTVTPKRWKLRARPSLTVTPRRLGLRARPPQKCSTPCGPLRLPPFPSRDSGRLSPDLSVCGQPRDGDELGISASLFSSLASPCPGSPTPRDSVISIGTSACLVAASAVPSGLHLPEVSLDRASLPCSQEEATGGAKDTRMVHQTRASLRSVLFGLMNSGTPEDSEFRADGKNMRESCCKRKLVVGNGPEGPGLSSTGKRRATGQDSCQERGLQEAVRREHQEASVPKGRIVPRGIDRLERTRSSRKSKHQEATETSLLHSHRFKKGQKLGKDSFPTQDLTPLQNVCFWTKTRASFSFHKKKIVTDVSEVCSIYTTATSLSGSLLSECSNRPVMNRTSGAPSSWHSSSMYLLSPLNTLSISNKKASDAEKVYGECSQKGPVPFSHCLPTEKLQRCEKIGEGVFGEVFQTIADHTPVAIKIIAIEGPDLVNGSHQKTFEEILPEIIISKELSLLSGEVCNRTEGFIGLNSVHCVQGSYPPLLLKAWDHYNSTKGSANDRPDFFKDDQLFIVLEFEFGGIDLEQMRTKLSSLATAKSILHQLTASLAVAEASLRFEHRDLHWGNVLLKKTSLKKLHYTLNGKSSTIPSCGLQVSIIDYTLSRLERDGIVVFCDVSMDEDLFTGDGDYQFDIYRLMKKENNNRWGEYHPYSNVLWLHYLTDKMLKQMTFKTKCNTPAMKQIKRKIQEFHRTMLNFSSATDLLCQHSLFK

[3] = test system: MV4-11; test: Antiproliferative activity against human MV4-11 cells assessed as reduction in cell proliferation by CellTiter-Glo luminescent cell viability assay; type: functional
[4] = test system: MDA-MB-231; test: Antiproliferative activity against human MDA-MB-231 cells assessed as reduction in cell proliferation by CellTiter-Glo luminescent cell viability assay; type: functional
[5] = test system: SW-620; test: Antiproliferative activity against human SW-620 cells assessed as reduction in cell proliferation by CellTiter-Glo luminescent cell viability assay; type: functional
[6] = test system: MOLM-13; test: Antiproliferative activity against human MOLM-13 cells assessed as reduction in cell proliferation by CellTiter-Glo luminescent cell viability assay; type: functional
[7] = test system: HCT-116; test: Antiproliferative activity against human HCT-116 cells assessed as reduction in cell proliferation by CellTiter-Glo luminescent cell viability assay; type: functional
[8] = target: Cyclin-C/Cyclin-dependent kinase 19 (Homo sapiens, UniProt Q9BWU1); test: Inhibition of kinase tracer 236 binding to full-length His-tagged recombinant human CDK19/cyclin C incubated for 60 mins by FRET based LanthaScreen Eu-Kinase binding assay; type: protein-complex assay
[9] = target: T2, Cyclin-dependent kinase 8 (Homo sapiens, UniProt P49336); test: Inhibition of CDK8 in human SW-620 cells assessed as reduction in IFNgamma-induced STAT1 S727 phosphorylation pre-incubated for 1 hr before IFNgamma stimulation for 3 hrs by Western blot analysis; type: cell-based; conditions: time 4.0 hrs
[10] = target: T3, Serine/threonine-protein kinase haspin (Homo sapiens) (UniProt Q8TF76); test: Inhibition of haspin in synchronized human SW620 cells assessed as reduction in IFNgamma-induced H3T3 phosphorylation pre-incubated for 1 hr before IFNgamma stimulation for 3 hrs by Western blot analysis; type: cell-based; conditions: SW-620, time 4.0 hrs
T3 sequence (whole entry): T1 sequence (Q8TF76 whole entry)

[11] = target: T2, Cyclin-dependent kinase 8; test: Inhibition of CDK8 in human SW-620 cells assessed as reduction in STAT1 S727 phosphorylation pre-incubated for 1 hr before IFNgamma stimulation for 3 hrs by Western blot analysis; type: cell-based; conditions: time 4.0 hrs
[12] = target: T3, Serine/threonine-protein kinase haspin (Homo sapiens); test: Inhibition of haspin in human SW620 cells assessed as reduction in IFNgamma-induced H3T3 phosphorylation pre-incubated for 1 hr before IFNgamma stimulation for 3 hrs by Western blot analysis; type: cell-based; conditions: SW-620, time 4.0 hrs
[13] = test system: SW-620; test: Inhibition of colony formation of human SW-620 cells incubated for 11 days (Every 3 days medium is changed by fresh medium and compounds were added freshly) by crystal violet staining based assay; type: functional, cell-based
[14] = test system: DU-145; test: Antiproliferative activity against human DU-145 cells assessed as reduction in cell proliferation by CellTiter-Glo luminescent cell viability assay; type: functional
[15] = test system: BXPC-3; test: Antiproliferative activity against human BXPC-3 cells assessed as reduction in cell proliferation by CellTiter-Glo luminescent cell viability assay; type: functional
[16] = test system: SK-MEL19; test: Antiproliferative activity against human SK-MEL19 cells assessed as reduction in cell proliferation by CellTiter-Glo luminescent cell viability assay; type: functional
[17] = test system: A549; test: Antiproliferative activity against human A549 cells assessed as reduction in cell proliferation by CellTiter-Glo luminescent cell viability assay; type: functional

Cyclin-C/Cyclin-dependent kinase 19, sequence (Q9BWU1 whole entry): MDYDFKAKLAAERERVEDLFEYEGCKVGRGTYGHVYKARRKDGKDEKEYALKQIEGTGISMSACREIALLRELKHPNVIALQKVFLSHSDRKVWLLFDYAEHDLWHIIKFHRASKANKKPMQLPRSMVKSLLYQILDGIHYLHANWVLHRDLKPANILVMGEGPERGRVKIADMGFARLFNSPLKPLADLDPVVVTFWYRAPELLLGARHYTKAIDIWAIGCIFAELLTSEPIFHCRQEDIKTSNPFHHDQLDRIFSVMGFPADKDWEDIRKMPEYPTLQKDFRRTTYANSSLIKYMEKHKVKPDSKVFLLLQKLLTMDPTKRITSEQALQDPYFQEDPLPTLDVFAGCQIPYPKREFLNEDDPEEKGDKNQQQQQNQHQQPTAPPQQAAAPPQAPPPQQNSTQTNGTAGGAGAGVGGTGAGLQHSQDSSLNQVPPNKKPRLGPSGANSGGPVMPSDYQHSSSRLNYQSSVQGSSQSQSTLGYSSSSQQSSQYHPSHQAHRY
Cyclin-C/Cyclin-dependent kinase 19, sequence (P24863 whole entry, further chain): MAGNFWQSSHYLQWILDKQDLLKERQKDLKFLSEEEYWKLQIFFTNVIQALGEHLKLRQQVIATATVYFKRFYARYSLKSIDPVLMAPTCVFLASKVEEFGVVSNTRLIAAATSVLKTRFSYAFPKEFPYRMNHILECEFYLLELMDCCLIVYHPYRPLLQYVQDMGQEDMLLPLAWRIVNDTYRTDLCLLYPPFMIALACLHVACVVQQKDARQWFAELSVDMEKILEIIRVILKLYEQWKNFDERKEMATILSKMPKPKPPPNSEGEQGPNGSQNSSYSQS
CDK8/Cyclin C, sequence (P49336 whole entry, the tested form may be a part): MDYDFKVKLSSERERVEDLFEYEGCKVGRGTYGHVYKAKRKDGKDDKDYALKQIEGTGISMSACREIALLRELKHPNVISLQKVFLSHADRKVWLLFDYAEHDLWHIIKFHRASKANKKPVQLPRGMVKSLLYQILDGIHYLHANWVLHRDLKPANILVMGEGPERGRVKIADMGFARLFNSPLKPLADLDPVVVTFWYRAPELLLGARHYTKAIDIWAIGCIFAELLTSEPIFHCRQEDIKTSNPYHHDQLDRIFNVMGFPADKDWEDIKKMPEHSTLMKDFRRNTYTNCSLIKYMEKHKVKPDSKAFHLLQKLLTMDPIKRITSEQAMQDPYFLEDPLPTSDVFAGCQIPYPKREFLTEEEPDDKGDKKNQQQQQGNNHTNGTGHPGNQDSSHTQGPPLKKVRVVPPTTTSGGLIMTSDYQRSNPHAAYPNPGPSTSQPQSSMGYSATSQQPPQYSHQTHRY
CDK8/Cyclin C, sequence (P24863 whole entry, further chain, the tested form may be a part): as the sequence (P24863 whole entry, further chain) above
T2 sequence (P49336 whole entry): as the sequence (P49336 whole entry, the tested form may be a part) above

GI50 ([3]; Homo sapiens, MV4-11) [nM] | GI50 ([6]; Homo sapiens, MOLM-13) [nM] | GI50 ([5]; Homo sapiens, SW-620) [nM] | GI50 ([4]; Homo sapiens, MDA-MB-231) [nM] | INH [11] [nM] | SMILES | further results
< 1000 | 1000 |  |  |  | NC(=O)c1cc2c([nH]1)-c1ccncc1OC2C1CCOCC1 (stereo in doubt; form 1) [listing 1 of 2 here] | pIC50 [1]: 6.55; pIC50 [2]: 5.24; GI50 [4]: 1000 nM; GI50 [5]: 1000 nM
 |  |  |  |  | CCn1c(C(N)=O)c(Cl)c2c1-c1ccncc1OC21CCCCC1 | pIC50 [1]: > 8.85
 |  | 5 |  |  | CC(=O)O[C@H]1C(=O)[C@@]2(C)[C@H]([C@H](OC(=O)c3ccccc3)[C@]3(O)C[C@H](OC(=O)[C@H](O)[C@@H](NC(=O)c4ccccc4)c4ccccc4)C(C)=C1C3(C)C)[C@]1(OC(C)=O)CO[C@@H]1C[C@@H]2O [PACLITAXEL] | GI50 [7]: 5 nM
1000 | 1000 | 10000 | 10000 |  | NC(=O)c1cc2c([nH]1)-c1ccncc1OC21CCN(CC(F)(F)F)CC1 | 
< 1000 | < 1000 | 1000 | 1000 |  | NC(=O)c1cc2c([nH]1)-c1ccncc1OC21CCN(CCc2ccccc2)CC1 | 
 |  |  |  |  | NC(=O)c1cc2c([nH]1)-c1ccncc1OC2C1CCOCC1 (stereo in doubt; form 2) [listing 1 of 2 here] | pIC50 [1]: 8.35; pIC50 [2]: 6.39; pIC50 [8]: 7.85; GI50 [3]: 1000 nM; GI50 [4]: 10000 nM; GI50 [5]: 10000 nM
< 1000 | 1000 | 10000 | 10000 |  | CCn1c(C(N)=O)c(-c2cccc(OC)c2)c2c1-c1ccncc1OC2(C)C | 
 |  |  |  |  | NC(=O)c1cc2c([nH]1)-c1ccncc1OC2C1CCOCC1 (stereo in doubt; form 2) [listing 2 of 2 here] | INH [9]: < 500 nM; INH [10]: 0.5 µM
 |  |  |  | < 500 | CCn1c(C(N)=O)cc2c1-c1ccncc1OC2C1CCCCC1 (stereo in doubt; form 2) [listing 1 of 2 here] | INH [12]: < 500 nM
< 1000 | < 1000 | 1000 | 1000 | < 500 | CCn1c(C(N)=O)cc2c1-c1ccncc1OC21CCOCC1 | INH [12]: < 500 nM
1000 |  |  | 10000 |  | CC1(C)Oc2cnccc2-c2[nH]c(C(N)=O)cc21 | 
 |  |  |  |  | COc1ccccc1-c1c2c(n(CCF)c1C(N)=O)-c1ccncc1OC2(C)C | INH [9]: < 500 nM; INH [10]: 0.5 µM; pEC50 [13]: 5.27
 |  |  |  |  | CCn1c(C(N)=O)cc2c1-c1ccncc1OC2C1CCCCC1 (stereo in doubt; form 2) [listing 2 of 2 here] | pIC50 [1]: 8.87; pIC50 [2]: 6.28; GI50 [6]: 1000 nM
 |  |  |  |  | CCn1c(C(N)=O)cc2c1-c1ccncc1OC2C1CCOCC1 (centres undefined) | pIC50 [1]: > 8.85; pIC50 [2]: 6.45
 |  | 500 |  |  | COc1cc(Nc2ncc3c(n2)-c2ccc(Cl)cc2C(c2c(F)cccc2OC)=NC3)ccc1C(=O)O [ALISERTIB] | GI50 [14]: 12500 nM; GI50 [7]: 12500 nM
< 1000 | 1000 | 1000 | 10000 | < 500 | NC(=O)c1cc2c([nH]1)-c1ccncc1O[C@H]2C1CCCCC1 | pIC50 [1]: 8.07; pIC50 [8]: 8.15; INH [9]: < 500 nM; INH [10]: < 0.5 µM; INH [12]: < 500 nM
1000 | 10000 | 10000 | 10000 |  | COCCn1c(C(N)=O)cc2c1-c1ccncc1OC21CCOCC1 | 
< 1000 | < 1000 | 10000 | 10000 |  | CCn1c(C(N)=O)cc2c1-c1ccncc1OC2C1CCCCC1 (stereo in doubt; form 1) | pIC50 [1]: 9.39; pIC50 [2]: 7.02; pIC50 [8]: 8.85
 |  | 1000 |  |  | C[C@@H](Oc1cc(-c2cnn(C3CCNCC3)c2)cnc1N)c1c(Cl)ccc(F)c1Cl [CRIZOTINIB] | GI50 [15]: 5000 nM; GI50 [14]: 20000 nM; GI50 [16]: 5000 nM; GI50 [7]: 5000 nM
< 1000 | < 1000 | 1000 | 1000 | < 500 | NC(=O)c1cc2c(n1CCF)-c1ccncc1OC21CCCCC1 | INH [12]: < 500 nM

GI50 ([3]; Homo sapiens, MV4-11) [nM] | GI50 ([6]; Homo sapiens, MOLM-13) [nM] | GI50 ([5]; Homo sapiens, SW-620) [nM] | GI50 ([4]; Homo sapiens, MDA-MB-231) [nM] | INH [11] [nM] | SMILES | further results
< 1000 | < 1000 | 1000 | 1000 | < 500 | CCn1c(C(N)=O)cc2c1-c1ccncc1OC21CCN(CC(F)(F)F)CC1 | INH [12]: < 500 nM
 |  |  |  |  | NC(=O)c1cc2c(n1CCF)-c1ccncc1OC21CCOCC1 | pIC50 [1]: > 8.85
< 1000 | < 1000 | < 1000 | 1000 |  | NC(=O)c1cc2c([nH]1)-c1ccncc1OC2C1CCCCC1 (centres undefined) | pIC50 [1]: 7.71; pIC50 [8]: 7.06; INH [9]: < 500 nM; INH [10]: 0.5 µM
< 1000 | < 1000 | 1000 | 1000 |  | CCn1c(C(N)=O)cc2c1-c1ccncc1OC21CCCCC1 [listing 1 of 3 here] | 
 |  |  |  |  | CCn1c(C(N)=O)cc2c1-c1ccncc1OC21CCCCC1 [listing 2 of 3 here] | pIC50 [1]: 6.52
 |  |  |  | < 500 | CCn1c(C(N)=O)cc2c1-c1ccncc1OC21CCCCC1 [listing 3 of 3 here] | INH [12]: < 500 nM
< 1000 | < 1000 | 1000 | 1000 | < 500 | CC1(C)Oc2cnccc2-c2c1cc(C(N)=O)n2CCF | INH [9]: < 500 nM; INH [10]: < 0.5 µM; INH [12]: < 500 nM
 |  |  |  |  | NC(=O)c1cc2c([nH]1)-c1ccncc1OC2C1CCOCC1 (stereo in doubt; form 1) [listing 2 of 2 here] | INH [9]: 500 nM; INH [10]: 0.5 µM
< 1000 | < 1000 | 1000 | 1000 | < 500 | NC(=O)c1cc2c(n1CCF)-c1ccncc1OC21CCC1 | 
< 1000 | < 1000 | 10000 | 1000 | < 500 | NC(=O)c1cc2c([nH]1)-c1ccncc1OC21CCC1 | 
< 1000 | < 1000 | 10000 | 10000 | < 500 | CCn1c(C(N)=O)c(-c2ccccc2OC)c2c1-c1ccncc1OC2(C)C | INH [9]: < 500 nM; INH [10]: < 0.5 µM; INH [12]: < 500 nM
< 1000 |  |  |  |  | CC1(C)Oc2cncc(Cl)c2-c2[nH]c(C(N)=O)cc21 | 
< 1000 | 1000 | 10000 | 1000 |  | Cn1c(C(N)=O)cc2c1-c1ccncc1OC2(C)C | 
< 1000 | < 1000 | 1000 | 1000 | < 500 | Cn1c(C(N)=O)cc2c1-c1ccncc1OC21CCCCC1 | 
 |  | 500 |  |  | COc1ccc(S(=O)(=O)Nc2cccnc2Nc2ccc(O)cc2)cc1 [ABT-751] | 
< 1000 | 1000 | 1000 | 1000 | < 500 | CC1(C)Oc2cnccc2-c2[nH]c(C(N)=O)c(C3CC3)c21 | 
 |  | 250 | 250 |  | CN(NC(=O)CC(=O)NN(C)C(=S)c1ccccc1)C(=S)c1ccccc1 [ELESCLOMOL] | GI50 [15]: 62 nM; GI50 [16]: 250 nM; GI50 [17]: 250 nM
 |  |  |  |  | COCCn1c(C(N)=O)cc2c1-c1ccncc1OC2(C)C | INH [9]: < 500 nM; INH [10]: < 0.5 µM
< 1000 | < 1000 | 1000 | 1000 |  | Cn1c(C(N)=O)cc2c1-c1ccncc1OC21CCOCC1 | 
